Results reported in the supplement of paper PMC10627819.

What was measured:
Assay in all cases: Bliss interaction score (quartile over a dose matrix) (fitness difference); higher = more antagonism (negative = synergy)
B. subtilis 168 = tested on: B. subtilis 168
How it was run: (§1)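 The Bliss score is observed minus expected fitness under the product model, reported as quartiles over technical, biological and donor/recipient replicates. Fitness is the OD595 at entry into stationary phase divided by the plate's robust no-drug mean and capped at 1. Single-drug fitness was inferred from combination data.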

S. aureus DSM 20231 = tested on: S. aureus DSM 20231
How it was run: as §1

S. aureus Newman = tested on: S. aureus Newman
How it was run: as §1

S. pneumoniae D39V = tested on: S. pneumoniae D39V
How it was run: as §1
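Further: first quartile when negative (synergy) and third quartile when positive (antagonism).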

In the case of `N[C@@H]1CONC1=O` [CycloserineD] + CCC(C)C1C(=O)NC(=C)C(=O)NC(C(=O)NC(CSCC(C(=O)N1)NC(=O)/C(=C/C)/NC(=O)C(C(C)CC)N)C(=O)NC2C(SCC(NC(=O)CNC(=O)C3CCCN3C2=O)C(=O)NC(CCCCN)C(=O)NC4C(SCC(NC(=O)CNC(=O)C(NC(=O)C(NC(=O)C(NC(=O)CNC4=O)C)CC(C)C)CCSC)C(=O)NC(CC(=O)N)C(=O)NC(CCSC)C(=O)NC(CCCCN)C(=O)NC5C(SCC6C(=O)NC(C(=O)NC(CSC(C(C(=O)N6)NC(=O)C(NC5=O)C)C)C(=O)NC(CO)C(=O)NC(C(C)CC)C(=O)NC(CC7=CN=CN7)C(=O)NC(C(C)C)C(=O)NC(=C)C(=O)NC(CCCCN)C(=O)O)CC8=CN=CN8)C)C)C)CC(C)C [Nisin], the Bliss interaction score (B. subtilis 168; main component drawn) is reported as 0.0525, the Bliss interaction score (S. aureus DSM 20231; main component drawn) is reported as 0.193 and the Bliss interaction score (S. aureus Newman; main component drawn) is reported as 0.0401. For the same molecule, the Bliss interaction score (S. pneumoniae D39V; main component drawn) was 0.0554.

Molecule `N[C@@H]1CONC1=O` [CycloserineD] + CCCCCCCCCC(=O)N[C@@H]1[C@H]([C@@H]([C@H](O[C@H]1OC2=C3C=C4C=C2OC5=C(C=C(C=C5)[C@H]([C@H]6C(=O)N[C@@H](C7=C(C(=CC(=C7)O)OC8[C@H]([C@H]([C@@H]([C@H](O8)CO)O)O)O)C9=C(C=CC(=C9)[C@H](C(=O)N6)NC(=O)[C@@H]4NC(=O)[C@@H]1C2=CC(=CC(=C2)OC2=C(C=CC(=C2)[C@H](C(=O)N[C@H](CC2=CC(=C(O3)C=C2)Cl)C(=O)N1)N)O)O)O)C(=O)O)O[C@H]1[C@@H]([C@H]([C@@H]([C@H](O1)CO)O)O)NC(=O)C)Cl)CO)O)O [Teicoplanin] has a Bliss interaction score (B. subtilis 168; main component drawn) of 0.0976, a Bliss interaction score (S. aureus DSM 20231; main component drawn) of 0.0399 and a Bliss interaction score (S. aureus Newman; main component drawn) of 0.054. The Bliss interaction score (S. pneumoniae D39V; main component drawn) was -0.0849.

For `N[C@@H]1CONC1=O` [CycloserineD] + CCC[C@@H]1C[C@@H](C(=O)N[C@@H]([C@H]2O[C@H](SC)[C@H](O)[C@@H](O)[C@H]2O)[C@@H](C)O)N(C)C1 [Lincomycin], the Bliss interaction score (B. subtilis 168) was -0.0375, the Bliss interaction score (S. aureus DSM 20231) was -0.146 and the Bliss interaction score (S. aureus Newman) was 0.102. It also gave a Bliss interaction score (S. pneumoniae D39V) of 0.153.

Work on `N[C@@H]1CONC1=O` [CycloserineD] + CCN(CC)CCOC(=O)c1ccc(N)cc1 [Procaine] yielded a Bliss interaction score (B. subtilis 168) of -0.0484, a Bliss interaction score (S. aureus DSM 20231) of 0.0639 and a Bliss interaction score (S. aureus Newman) of 0.0381. It also gave a Bliss interaction score (S. pneumoniae D39V) of -0.0723.

`N[C@@H]1CONC1=O` [CycloserineD] + CC[C@H]1OC(=O)[C@H](C)C(=O)[C@H](C)[C@@H](O[C@@H]2O[C@H](C)C[C@H](N(C)C)[C@H]2O)[C@](C)(OC)C[C@@H](C)C(=O)[C@H](C)[C@H]2N(CCCCn3cnc(-c4cccnc4)c3)C(=O)O[C@]12C [Telithromycin] gave a Bliss interaction score (B. subtilis 168) of 0.0974, a Bliss interaction score (S. aureus DSM 20231) of 0.116 and a Bliss interaction score (S. aureus Newman) of 0.0514. It also gave a Bliss interaction score (S. pneumoniae D39V) of 0.0906.

`N[C@@H]1CONC1=O` [CycloserineD] + CC[C@H]1OC(=O)[C@H](C)[C@@H](O[C@H]2C[C@@](C)(OC)[C@@H](O)[C@H](C)O2)[C@H](C)[C@@H](O[C@@H]2O[C@H](C)C[C@H](N(C)C)[C@H]2O)[C@](C)(O)C[C@@H](C)C(=O)[C@H](C)[C@@H](O)[C@]1(C)O [Erythromycin] gave a Bliss interaction score (B. subtilis 168) of 0.077, a Bliss interaction score (S. aureus DSM 20231) of -0.043 and a Bliss interaction score (S. aureus Newman) of -0.0485. For the same molecule, the Bliss interaction score (S. pneumoniae D39V) was 0.0918.

With `N[C@@H]1CONC1=O` [CycloserineD] + CN1C2=CC=CC=C2N=C3C1=CC=CC3=O [Pyocyanin] the Bliss interaction score (B. subtilis 168) was -0.0572, the Bliss interaction score (S. aureus DSM 20231) was 0.0676 and the Bliss interaction score (S. aureus Newman) was -0.0546. It also gave a Bliss interaction score (S. pneumoniae D39V) of 0.201.

Molecule `N[C@@H]1CONC1=O` [CycloserineD] + CN(C)C(=O)C(CCN1CCC(O)(c2ccc(Cl)cc2)CC1)(c1ccccc1)c1ccccc1 [Loperamide] has a Bliss interaction score (B. subtilis 168) of -0.209, a Bliss interaction score (S. aureus DSM 20231) of 0.0915 and a Bliss interaction score (S. aureus Newman) of 0.0674. It also gave a Bliss interaction score (S. pneumoniae D39V) of 0.289.

`N[C@@H]1CONC1=O` [CycloserineD] + CN(C)c1cc(NC(=O)CNC(C)(C)C)c(O)c2c1C[C@H]1C[C@H]3[C@H](N(C)C)C(O)=C(C(N)=O)C(=O)[C@@]3(O)C(O)=C1C2=O [Tigecycline] gave a Bliss interaction score (B. subtilis 168) of -0.0502, a Bliss interaction score (S. aureus DSM 20231) of 0.0966 and a Bliss interaction score (S. aureus Newman) of 0.0356. For the same molecule, the Bliss interaction score (S. pneumoniae D39V) was -0.0514.

In the case of `N[C@@H]1CONC1=O` [CycloserineD] + CN(N=O)C(=O)N[C@@H](C=O)[C@@H](O)[C@H](O)[C@H](O)CO [Streptozotocin], the Bliss interaction score (B. subtilis 168) is reported as 0.0463, the Bliss interaction score (S. aureus DSM 20231) is reported as -0.14 and the Bliss interaction score (S. aureus Newman) is reported as -0.0611. It also gave a Bliss interaction score (S. pneumoniae D39V) of -0.16.

`N[C@@H]1CONC1=O` [CycloserineD] + CN[C@@H]1[C@H](O)[C@H](NC)[C@H]2O[C@@]3(O)C(=O)C[C@@H](C)O[C@H]3O[C@@H]2[C@H]1O [Spectinomycin] was tested, and the Bliss interaction score (B. subtilis 168) was -0.034, the Bliss interaction score (S. aureus DSM 20231) was 0.0625 and the Bliss interaction score (S. aureus Newman) was 0.0506. It also gave a Bliss interaction score (S. pneumoniae D39V) of 0.11.

Molecule `N[C@@H]1CONC1=O` [CycloserineD] + CN[C@@H]1[C@H](O[C@H]2[C@H](O[C@H]3[C@H](O)[C@@H](O)[C@H](N=C(N)N)[C@@H](O)[C@@H]3N=C(N)N)O[C@@H](C)[C@]2(O)C=O)O[C@@H](CO)[C@H](O)[C@H]1O [Streptomycin] has a Bliss interaction score (B. subtilis 168) of -0.0511, a Bliss interaction score (S. aureus DSM 20231) of -0.136 and a Bliss interaction score (S. aureus Newman) of 0.0653. It also gave a Bliss interaction score (S. pneumoniae D39V) of -0.108.

Molecule `N[C@@H]1CONC1=O` [CycloserineD] + CN[C@H](CC(C)C)C(=O)N[C@H]1C(=O)N[C@@H](CC(N)=O)C(=O)N[C@H]2C(=O)N[C@H]3C(=O)N[C@H](C(=O)N[C@H](C(=O)O)c4cc(O)cc(O)c4-c4cc3ccc4O)[C@H](O)c3ccc(c(Cl)c3)Oc3cc2cc(c3O[C@@H]2O[C@H](CO)[C@@H](O)[C@H](O)[C@H]2O[C@H]2C[C@](C)(N)[C@H](O)[C@H](C)O2)Oc2ccc(cc2Cl)[C@H]1O [Vancomycin] has a Bliss interaction score (B. subtilis 168) of -0.113, a Bliss interaction score (S. aureus DSM 20231) of 0.0736 and a Bliss interaction score (S. aureus Newman) of 0.0656. The Bliss interaction score (S. pneumoniae D39V) was -0.069.

`N[C@@H]1CONC1=O` [CycloserineD] + CN[C@H](CC(C)C)C(=O)N[C@H]1C(=O)N[C@@H](CC(N)=O)C(=O)N[C@H]2C(=O)N[C@H]3C(=O)N[C@H](C(=O)N[C@H](C(=O)O)c4cc(O)cc(O)c4-c4cc3ccc4O)[C@H](O[C@H]3C[C@](C)(N)[C@@H](O)[C@H](C)O3)c3ccc(c(Cl)c3)Oc3cc2cc(c3O[C@@H]2O[C@H](CO)[C@@H](O)[C@H](O)[C@H]2O[C@H]2C[C@](C)(NCc3ccc(-c4ccc(Cl)cc4)cc3)[C@@H](O)[C@H](C)O2)Oc2ccc(cc2Cl)[C@H]1O [Oritavancin] showed a Bliss interaction score (B. subtilis 168) of 0.0352, a Bliss interaction score (S. aureus DSM 20231) of -0.0757 and a Bliss interaction score (S. aureus Newman) of 0.0585. It also gave a Bliss interaction score (S. pneumoniae D39V) of 0.0458.

`N[C@@H]1CONC1=O` [CycloserineD] + CO[C@@H]1[C@@H](OC(N)=O)[C@@H](O)[C@H](Oc2ccc3c(O)c(NC(=O)c4ccc(O)c(CC=C(C)C)c4)c(=O)oc3c2C)OC1(C)C [Novobiocin] was tested, and the Bliss interaction score (B. subtilis 168) was 0.0651, the Bliss interaction score (S. aureus DSM 20231) was 0.0888 and the Bliss interaction score (S. aureus Newman) was 0.0912. The Bliss interaction score (S. pneumoniae D39V) was 0.187.

Work on `N[C@@H]1CONC1=O` [CycloserineD] + CO[C@@]12[C@H](COC(N)=O)C3=C(C(=O)C(C)=C(N)C3=O)N1C[C@@H]1N[C@@H]12 [MitomycinC] yielded a Bliss interaction score (B. subtilis 168) of 0.0912, a Bliss interaction score (S. aureus DSM 20231) of -0.0633 and a Bliss interaction score (S. aureus Newman) of -0.0532. The Bliss interaction score (S. pneumoniae D39V) was 0.108.

In the case of `N[C@@H]1CONC1=O` [CycloserineD] + CO[C@H]1/C=C/O[C@@]2(C)Oc3c(C)c(O)c4c(O)c(c(/C=N/N5CCN(C)CC5)c(O)c4c3C2=O)NC(=O)/C(C)=C\C=C\[C@H](C)[C@H](O)[C@@H](C)[C@@H](O)[C@@H](C)[C@H](OC(C)=O)[C@@H]1C [Rifampicin], the Bliss interaction score (B. subtilis 168) is reported as 0.0563, the Bliss interaction score (S. aureus DSM 20231) is reported as -0.0935 and the Bliss interaction score (S. aureus Newman) is reported as 0.0463. For the same molecule, the Bliss interaction score (S. pneumoniae D39V) was 0.163.

`N[C@@H]1CONC1=O` [CycloserineD] + COc1c(N2C[C@@H]3CCCN[C@@H]3C2)c(F)cc2c(=O)c(C(=O)O)cn(C3CC3)c12 [Moxifloxacin] showed a Bliss interaction score (B. subtilis 168) of -0.0252, a Bliss interaction score (S. aureus DSM 20231) of -0.0873 and a Bliss interaction score (S. aureus Newman) of -0.0769. The Bliss interaction score (S. pneumoniae D39V) was 0.0969.
